In patent US9132127B2, “Substituted pyrido[2,3-B]pyrazines as IP receptor agonists” (Novartis AG, priority 2010, dated 2015):
Read-outs that look alike come from different tables or passages of the source.

Biological target: T1, IP receptor (Homo sapiens, UniProt P43119)
T1 construct: expressed in transfected cells; host or cells: CHO cells stably expressing the IP receptor (CHO-IP)
Assay: cAMP accumulation in CHO cells stably expressing the IP receptor (CHO-IP), PerkinElmer AlphaScreen assay
Assay type: cell-based
Description: Activity of compounds at the IP receptor (IP receptor) is assessed by measuring cAMP accumulation in CHO cells stably expressing the IP receptor (CHO-IP) using the PerkinElmer AlphaScreen assay. This technology measures the endogenous production of cAMP, in a non-radioactive luminescence proximity homogenous assay. A biological reaction occurs between streptavidin coated donor beads, biotinylated cAMP and anti-cAMP acceptor beads, bringing the donor and acceptor beads close enough together so that upon excitation a fluorescence signal is produced. On production of endogenous cAMP, competition between the biotinylated cAMP and cellular-derived cAMP causes a reduction in the fluorescent signal. The reduction in signal is proportional to the amount of cAMP being produced, thus it is possible to quantify the amount of cAMP being produced on stimulation with agonist.
Test and reference compounds are prepared at 100×[final] in 100% DMSO, and diluted 1:3 using a Biomek Fx (Beckman Coulter). This is followed by an intermediate dilution to give 5×[final] in assay buffer (HBSS containing 5 mM HEPES, 0.1% (w/v) BSA). 5 μL of 5×[final] test compounds, reference compounds and buffer/DMSO control are then transferred to a 384-well white OptiPlate, containing 20 μL CHO—IP cell suspension (15,000 cells/well, prepared from frozen), and plate is incubated at room temperature for 1 hour. A cAMP standard curve is constructed for each experiment (concentration range of 10000 nM to 0.001 nM, in assay buffer) and 25 μL of each concentration added to the last two columns of the assay plate. The incubation is terminated by the addition of lysis buffer (dH2O; 0.3% (v v^−1) Tween-20) containing 20 units mL^−1 streptavidin coated donor beads and biotinylated cAMP (pre-incubated for 30 minutes) and 20 units mL^−1 anti-cAMP acceptor beads, which are added to the lysis buffer just before addition to the assay plate. The assay plate is then incubated at room temperature in the dark, for 60 minutes with gentle shaking, and read on the Envision plate reader (Perkin Elmer).
The raw data of the reference compounds, test compounds and controls are converted into cAMP concentrations, using the cAMP standard curve, in GraphPadPrism (GraphPad Software Inc). EC50 as well as maximal values of the agonist curves are determined using a 4-parameter logistic equation. The % maximum response values of all test compounds are determined using the top of the treprostinil concentration-response curve.

[1] = 1 hour at room temperature, Table 1, read-out: EC50
[2] = read-out: EC50 values in the data measurements described above

T1 sequence (P43119 whole entry): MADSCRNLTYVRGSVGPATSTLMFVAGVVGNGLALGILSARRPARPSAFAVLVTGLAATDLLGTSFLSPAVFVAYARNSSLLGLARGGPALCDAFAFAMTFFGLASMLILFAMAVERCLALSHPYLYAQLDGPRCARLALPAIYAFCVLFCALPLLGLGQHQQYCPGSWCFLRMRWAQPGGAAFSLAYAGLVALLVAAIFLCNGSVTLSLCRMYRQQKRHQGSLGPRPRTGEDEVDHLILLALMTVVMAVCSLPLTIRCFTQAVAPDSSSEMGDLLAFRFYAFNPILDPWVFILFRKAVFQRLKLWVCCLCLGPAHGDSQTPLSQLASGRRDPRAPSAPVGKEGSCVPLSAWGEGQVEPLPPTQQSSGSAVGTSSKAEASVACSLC

SMILES	EC50 [1]	EC50 [2]
Cc1ccc(-c2nc3c(nc2-c2ccc(C)cc2)N(CCCCCCC(=O)O)CCC3O)cc1 (single isomer, unassigned) [Example 9.8b, 7-(8-Hydroxy-2,3-dip-tolyl-7,8-dihydropyrido[2,3-b]pyrazin-5(6H)-yl)heptanoic acid]	1.8 nM	
Cc1ccc(-c2nc3c(nc2-c2ccc(C)cc2)N(CCCCCCC(=O)O)CC(O)C3O)cc1 (single isomer, unassigned) [Example 8.2a, 7-(7,8-dihydroxy-2,3-dip-tolyl-7,8-dihydropyrido[2,3-b]pyrazin-5(6H)-yl)heptanoic acid]	0.49 nM	
Cc1ccc(-c2nc3c(nc2-c2ccc(C)cc2)N(CCCCCCC(=O)O)CC(O)C3)cc1 (single isomer, unassigned) [Example 14.2, 7-(7-hydroxy-2,3-dip-tolyl-7,8-dihydropyrido[2,3-b]pyrazin-5(6H)-yl)heptanoic acid]	0.0627 nM	
Cc1ccc(-c2nc3c(nc2-c2ccc(C)cc2)N(CCCCCCC(=O)O)C(C)CC3)cc1 (single isomer, unassigned) [Example 4.14, 7-(6-methyl-2,3-dip-tolyl-7,8-dihydropyrido[2,3-b]pyrazin-5(6H)-yl)heptanoic acid]	0.13 nM	
Cc1ccc(-c2nc3c(nc2-c2ccc(C)cc2)N(CCCCCCC(=O)O)C(=O)C(O)C3)cc1 (stereo not shown) [Example 16.1, 7-(7-Hydroxy-6-oxo-2,3-dip-tolyl-7,8-dihydropyrido[2,3-b]pyrazin-5(6H)-yl)heptanoic acid]	0.74 nM	
CCCc1ccc(-c2nc3c(nc2-c2ccc(CCC)cc2)N(CCCCCC(=O)OCC)CCC3)cc1 [ethyl 6-(2,3-bis(4-propylphenyl)-7,8-dihydropyrido[2,3-b]pyrazin-5(6H)-yl)hexanoate]		> 10000 nM
Cc1ccc(-c2nc3c(nc2-c2ccc(C)cc2)N(CCCCCCC(=O)O)CCC3)cc1 [Example 4.3, 7-(2,3-Dip-tolyl-7,8-dihydropyrido[2,3-b]pyrazin-5(6H)-yl)heptanoic acid]	0.11 nM	
Cc1ccc(-c2nc3c(nc2-c2ccc(C)cc2)N(CCCCCCC(=O)O)CCC3O)cc1 (single isomer, unassigned) [Example 9.8a, 7-(8-Hydroxy-2,3-dip-tolyl-7,8-dihydropyrido[2,3-b]pyrazin-5(6H)-yl)heptanoic acid]	0.4 nM	
Cc1ccc(-c2nc3c(nc2-c2ccc(C)cc2)N(CCCCCCC(=O)O)CCC3O)cc1 (single isomer, unassigned) [Example 9.8, rac-7-(8-Hydroxy-2,3-dip-tolyl-7,8-dihydropyrido[2,3-b]pyrazin-5(6H)-yl)heptanoic acid]	0.296 nM	
Cc1ccc(-c2nc3c(nc2-c2ccc(C)cc2)N(CCCCCCC(=O)O)C(C)CC3)cc1 (single isomer, unassigned) [Example 4.15, 7-(6-methyl-2,3-dip-tolyl-7,8-dihydropyrido[2,3-b]pyrazin-5(6H)-yl)heptanoic acid]	0.48 nM	
Cc1ccc(-c2nc3c(nc2-c2ccccc2)CCCN3CCCCCCC(=O)O)cc1 [Example 5.2, 7-(2-Phenyl-3-p-tolyl-7,8-dihydropyrido[2,3-b]pyrazin-5(6H)-yl)heptanoic acid]	0.08 nM	
CC1CCc2cc(-c3ccccc3)c(-c3ccccc3)nc2N1CCCCCCC(=O)O (single isomer, unassigned) [Example 3.1, 7-(2-methyl-6,7-diphenyl-3,4-dihydro-1,8-naphthyridin-1(2H)-yl)heptanoic acid]	36 nM	
O=C(O)CCCCCCN1CCCc2nc(-c3ccccc3)c(-c3ccccc3)nc21 [Example 4.1, 7-(2,3-diphenyl-7,8-dihydropyrido[3,2-b]pyrazin-5(6H)-yl)heptanoic acid]	1.2 nM	
Cc1ccc(-c2nc3c(nc2-c2ccc(C)cc2)N(CCCCCCC(=O)O)CC(O)C3)cc1 (single isomer, unassigned) [Example 14.1, 7-(7-hydroxy-2,3-dip-tolyl-7,8-dihydropyrido[2,3-b]pyrazin-5(6H)-yl)heptanoic acid]	0.0718 nM	
Cc1ccc(-c2nc3c(nc2-c2ccc(C)cc2)N(CCCC(O)C(O)CC(=O)O)CCC3)cc1 (racemic) [Example 15.1, rac-7-(2,3-Dip-tolyl-7,8-dihydropyrido[2,3-b]pyrazin-5(6H)-yl)-3,4-dihydroxyheptanoic acid]	57 nM	
CC1CCc2cc(-c3ccccc3)c(-c3ccccc3)nc2N1CCCCCCC(=O)O (single isomer, unassigned) [Example 3.2, 7-(2-methyl-6,7-diphenyl-3,4-dihydro-1,8-naphthyridin-1(2H)-yl)heptanoic acid]	245 nM	
O=C(O)CCCCCCN1CC[C@H](O)c2nc(-c3ccccc3)c(-c3ccccc3)nc21 [Example 9.2, (S)-7-(8-Hydroxy-2,3-diphenyl-7,8-dihydropyrido[2,3-b]pyrazin-5(6H)-yl)heptanoic acid]	8.6 nM	
Cc1ccc(-c2nc3c(nc2-c2ccc(C)c(F)c2)N(CCCCCCC(=O)O)CCC3)cc1F [Example 6.1, 7-(2,3-bis(3-Fluoro-4-methylphenyl)-7,8-dihydropyrido[2,3-b]pyrazin-5(6H)-yl)heptanoic acid]	0.32 nM	
Cc1ccc(-c2nc3c(nc2-c2ccc(C)cc2)N(CCCCCCC(=O)O)CC(O)C3O)cc1 (single isomer, unassigned) [Example 8.2b, 7-(7,8-dihydroxy-2,3-dip-tolyl-7,8-dihydropyrido[2,3-b]pyrazin-5(6H)-yl)heptanoic acid]	0.89 nM	
CCOC(=O)CCCCCCN1CCCc2nc(-c3cccc(C)c3)c(-c3ccc(C)cc3)nc21 [ethyl 7-(2-(m-tolyl)-3-(p-tolyl)-7,8-dihydropyrido[2,3-b]pyrazin-5(6H)-yl)heptanoate]		> 10000 nM
Cc1ccc(-c2nc3c(nc2-c2ccc(C)cc2)N(CCCCCCC(=O)O)C(=O)CC3)cc1 [Example 12.1, 7-(6-oxo-2,3-dip-tolyl-7,8-dihydropyrido[2,3-b]pyrazin-5(6H)-yl)heptanoic acid]	0.0754 nM	
COC1Cc2nc(-c3ccc(C)cc3)c(-c3ccc(C)cc3)nc2N(CCCCCCC(=O)O)C1 (single isomer, unassigned) [Example 17.1b, 7-(7-methoxy-2,3-dip-tolyl-7,8-dihydropyrido[2,3-b]pyrazin-5(6H)-yl)heptanoic acid]	4.8 nM	
CN1c2nc(-c3ccccc3)c(-c3ccccc3)cc2CCC1CCCCCC(=O)O (single isomer, unassigned) [Example 2.2, 6-(1-methyl-6,7-diphenyl-1,2,3,4-tetrahydro-1,8-naphthyridin-2-yl)hexanoic acid]	100 nM	
O=C(O)CCCCN1CCCc2cc(-c3ccccc3)c(-c3ccccc3)nc21 [5-(6,7-diphenyl-3,4-dihydro-1,8-naphthyridin-1(2H)-yl)pentanoic acid]		> 10000 nM
COC1Cc2nc(-c3ccc(C)cc3)c(-c3ccc(C)cc3)nc2N(CCCCCCC(=O)O)C1 (single isomer, unassigned) [Example 17.1a, 7-(7-methoxy-2,3-dip-tolyl-7,8-dihydropyrido[2,3-b]pyrazin-5(6H)-yl)heptanoic acid]	3 nM	
O=C(O)CCCCCCN1CC[C@@H](O)c2nc(-c3ccccc3)c(-c3ccccc3)nc21 [Example 9.1, (R)-7-(8-Hydroxy-2,3-diphenyl-7,8-dihydropyrido[2,3-b]pyrazin-5(6H)-yl)heptanoic acid]	5.6 nM	
CN1c2nc(-c3ccccc3)c(-c3ccccc3)cc2CCC1CCCCCC(=O)O (single isomer, unassigned) [Example 2.1, 6-(1-methyl-6,7-diphenyl-1,2,3,4-tetrahydro-1,8-naphthyridin-2-yl)hexanoic acid]	30 nM	
O=C(O)CCCCCCN1CCCc2cc(-c3ccccc3)c(-c3ccccc3)nc21 [Example 1.1, 7-(6,7-Diphenyl-3,4-dihydro-1,8-naphthyridin-1(2H)-yl)heptanoic acid]	5.5 nM	
